# Literature values as cited in patent publication US9820973B2, “Pharmaceutical formulation comprising losartan potassium and chlorthalidone” (Merck Sharp & Dohme B.V., priority 2013, dated 2017).
SMILES,Behaviour of the salt (in words) (acidic media),Dissolution of the salt (in words) (neutral to basic media),Solubility (in words) (across the physiologic pH range)
"CCCCc1nc(Cl)c(CO)n1Cc1ccc(-c2ccccc2-c2nnn[nH]2)cc1 [Losartan potassium, 2-butyl-4-chloro-1-[p-(o-1H-tetrazol-5-ylphenyl)-benzyl]imidazole-5-methanol]",the salt dissociates and the losartan free acid precipitates as a gel layer,readily dissolves,
"NS(=O)(=O)c1cc(C2(O)NC(=O)c3ccccc32)ccc1Cl (racemic) [chlorthalidone, (RS)-2-chloro-5-(1-hydroxy-3-oxo-2,3-dihydro-1H-isoindol-1-yl)benzene-1-sulfonamide]",,,low solubility
